Experimental findings from patent US4563453A, “Thiazine derivatives, processes for preparation thereof and pharmaceutical composition comprising the same” (Fujisawa Pharmaceutical Co., Ltd., priority 1983, dated 1986) are described below.

For one assay, the system named is Arthus foot edema. The experiment in a line: Arthus foot edema (paw edema in rats). The assay is classed as in vivo, Male Sprague-Dawley rats. The settings on record: rat, oral, 100 mg/kg, 60 minutes before phlogogen; edema volume 3 hours after egg albumin i.v./anti egg albumin antiserum subplantar. On the procedure: TEST B (Arthus foot edema)
Five male Sprague-Dawley rats weighing about 200 g were used per group.
Paw edema was induced by intravenous injection of egg albumin (0.5 mg/rat) and subplantar injection of anti egg albumin antiserum (0.1 ml/rat) in Arthus type foot edema. The test drug was suspended in methylcellulose and administered orally 60 minutes before phlogogen. Paw volume was measured with plethysmometer (Ugo Basil Co., Ltd.) by water displacement immersing the paw to the lateral malleolus. The difference of paw volume before and 3 hours after the phlogogen was designated as edema volume. The data were analyzed statistically by student's t-test.

In another assay the test system is Carrageenin foot edema. The experiment in a line: Carrageenin foot edema (paw edema in rats). Type of assay: in vivo, Male Sprague-Dawley rats. The settings on record: rat, oral, 10.0 mg/kg, 60 minutes before phlogogen; edema volume 3 hours after 1% carrageenin. The method, then: TEST A (Carrageenin foot edema)
Male Sprague-Dawley rats weighing about 200 g were used in groups of five. Paw edema was induced by subplantar injection of 1% carrageenin (0.1 ml/rat) into the right hind paw. The test drug was suspended in 0.5% methylcellulose and administered orally 60 minutes before phlogogen. Paw volume was measured with plethysmometer (Ugo Basil Co., Ltd.) by water displacement immersing the paw to the lateral malleolus. The difference of paw volume before and 3 hours after the phlogogen was designated as edema volume. The data was analyzed statistically by student's t-test.

Consider `CN1C(C(=O)Nc2ccc(O)c(=O)cc2)=C(O)c2sccc2S1(=O)=O` [4-Hydroxy-2-methyl-N-(2-hydroxy-1-oxo-2,4,6-cycloheptatrien-5-yl)-2H-thieno[2,3-e]-1,2-thiazine-3-carboxamide 1,1-dioxide], for which the “Inhibition (%)” value in the assay with Arthus foot edema came to 37.8%.

On to `CN1C(C(=O)Nc2cccccc2=O)=C(O)c2sccc2S1(=O)=O` [(a), 4-Hydroxy-2-methyl-N-(1-oxo-2,4,6-cycloheptatrien-2-yl)-2H-thieno[2,3-e]-1,2-thiazine-3-carboxamide 1,1-dioxide], for which the “Inhibition (%)” value in the assay on Carrageenin foot edema came out at 63.6%.

For `CN1C(C(=O)Nc2cccccc2=O)=C(O)c2sc3ccccc3c2S1(=O)=O` [(b), 4-Hydroxy-2-methyl-N-(1-oxo-2,4,6-cycloheptatrien-2-yl)-2H-[1]benzothieno[2,3-e]-1,2-thiazine-3-carboxamide 1,1-dioxide], in the assay with Carrageenin foot edema, the “Inhibition (%)” value stood at 34%.
